Key:
[1] = tested on: IL-2 stimulated STAT5 phosphorylation in Tall-1 human T cell line (JAK3); test: Cellular JAK3 potency assay: inhibition of IL-2 stimulated pSTAT5 in Tall-1 T cells; assay type: cell-based; settings: IL-2 stimulated pSTAT5, Tall-1 T cells
Procedure, shortened: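 AlphaLISA SureFire Ultra measures STAT5 Tyr694/699 phosphorylation in lysed Tall-1 human T cells. Cells were exposed to compound for 1 h at 37 °C before a 30 min IL-2 challenge (300 ng/ml final). Values are pIC50 means with standard deviation from signal-versus-concentration curves.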

[2] = Colon and plasma mouse pharmacokinetics; assay type: in vivo; settings: mouse, colon tissue / plasma; male Balb/c mice, 10 mg/kg PO; ratio of the colon AUC to the plasma AUC
Procedure: Assay 5: Colon and Plasma Mouse Pharmacokinetics
To 6 male Balb/c mice was administered 10 mg/kg of compound in 1% HPMC+0.1% Tween-80 by PO administration. At 0.5, 2 and 6 hours after dose administration, animals were anesthetized, and terminal blood samples were collected by cardiac puncture, followed by collection of colon contents and colon tissue.
Blood samples were collected into K2EDTA and stored on wet ice until processed to plasma by centrifugation (12000 rpm at 4° C.). Plasma samples were transferred to cluster tubes and placed on dry ice prior to freezer storage. The colon contents from each animal were collected at each terminal blood collection time point. The colon tissues were flushed with saline and patted dry. The colon and colon content tissues were homogenized using sterile water containing 0.1% formic acid 9:1 (water:tissue, v/w). The homogenized tissues and colon contents were transferred to cluster tubes and placed on dry ice prior to freezer storage. All samples were analyzed using LC/MS/MS against analytical standards.
The composite pharmacokinetic parameters of the compounds were determined by non-compartmental analysis using Phoenix WinNonlin Version 6 (Certara, St. Louis, Mo.) and using mean values from 2 animals/time point. For plasma concentrations below the quantification limit (BQL), the lowest concentration measurable or the BLOQ (below limit of quantification) was used.
A colon to plasma ratio was determined as the ratio of the colon AUC to the plasma AUC.

JAK1 = JAK1 (Homo sapiens (Human), UniProt P23458); test: Biochemical JAK1 kinase assay (LanthaScreen)
JAK1, sequence (P23458 whole entry): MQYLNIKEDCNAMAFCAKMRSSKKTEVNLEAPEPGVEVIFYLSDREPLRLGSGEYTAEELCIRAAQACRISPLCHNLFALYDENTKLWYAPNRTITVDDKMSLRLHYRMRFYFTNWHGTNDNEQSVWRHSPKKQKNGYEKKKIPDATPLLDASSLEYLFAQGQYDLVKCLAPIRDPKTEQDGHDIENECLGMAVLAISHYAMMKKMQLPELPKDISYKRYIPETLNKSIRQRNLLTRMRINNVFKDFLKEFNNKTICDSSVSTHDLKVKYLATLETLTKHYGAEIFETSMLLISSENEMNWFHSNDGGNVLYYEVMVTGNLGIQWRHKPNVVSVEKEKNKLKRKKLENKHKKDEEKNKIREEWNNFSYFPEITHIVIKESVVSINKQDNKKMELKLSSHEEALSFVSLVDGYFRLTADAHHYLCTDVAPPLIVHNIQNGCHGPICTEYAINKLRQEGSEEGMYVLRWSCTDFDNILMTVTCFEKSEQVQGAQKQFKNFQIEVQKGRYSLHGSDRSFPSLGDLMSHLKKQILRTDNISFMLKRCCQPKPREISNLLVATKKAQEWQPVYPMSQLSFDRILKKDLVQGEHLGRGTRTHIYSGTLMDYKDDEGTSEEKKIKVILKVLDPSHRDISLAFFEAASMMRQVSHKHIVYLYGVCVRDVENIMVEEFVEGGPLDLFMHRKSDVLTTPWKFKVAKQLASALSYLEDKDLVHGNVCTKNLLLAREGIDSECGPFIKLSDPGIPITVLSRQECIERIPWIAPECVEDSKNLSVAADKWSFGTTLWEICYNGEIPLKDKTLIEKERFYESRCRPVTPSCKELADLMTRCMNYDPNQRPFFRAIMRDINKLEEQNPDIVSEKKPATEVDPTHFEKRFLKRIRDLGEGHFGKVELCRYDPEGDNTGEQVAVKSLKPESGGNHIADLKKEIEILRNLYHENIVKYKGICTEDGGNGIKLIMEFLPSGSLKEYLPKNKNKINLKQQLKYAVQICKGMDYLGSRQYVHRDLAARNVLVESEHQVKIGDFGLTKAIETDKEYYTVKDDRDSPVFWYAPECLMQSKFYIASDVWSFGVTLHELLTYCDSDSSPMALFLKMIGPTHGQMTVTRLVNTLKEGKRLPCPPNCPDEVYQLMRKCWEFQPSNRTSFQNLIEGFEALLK
Procedure, shortened: (§1)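 GST-JAK + GFP-STAT1 peptide, HEPES pH 7.5/MgCl2/EGTA/Brij-35 buffer; cpd preincubation 1 h RT; ATP start, 1 h RT; stop with 10 mM EDTA + 2 nM Tb-anti-pSTAT1; TR-FRET 520/495. 4-parameter IC50 → pKi (Cheng-Prusoff).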

JAK2 = JAK2 (Homo sapiens (Human), UniProt O60674); test: Biochemical JAK2 kinase assay (LanthaScreen)
JAK2, sequence (O60674 whole entry): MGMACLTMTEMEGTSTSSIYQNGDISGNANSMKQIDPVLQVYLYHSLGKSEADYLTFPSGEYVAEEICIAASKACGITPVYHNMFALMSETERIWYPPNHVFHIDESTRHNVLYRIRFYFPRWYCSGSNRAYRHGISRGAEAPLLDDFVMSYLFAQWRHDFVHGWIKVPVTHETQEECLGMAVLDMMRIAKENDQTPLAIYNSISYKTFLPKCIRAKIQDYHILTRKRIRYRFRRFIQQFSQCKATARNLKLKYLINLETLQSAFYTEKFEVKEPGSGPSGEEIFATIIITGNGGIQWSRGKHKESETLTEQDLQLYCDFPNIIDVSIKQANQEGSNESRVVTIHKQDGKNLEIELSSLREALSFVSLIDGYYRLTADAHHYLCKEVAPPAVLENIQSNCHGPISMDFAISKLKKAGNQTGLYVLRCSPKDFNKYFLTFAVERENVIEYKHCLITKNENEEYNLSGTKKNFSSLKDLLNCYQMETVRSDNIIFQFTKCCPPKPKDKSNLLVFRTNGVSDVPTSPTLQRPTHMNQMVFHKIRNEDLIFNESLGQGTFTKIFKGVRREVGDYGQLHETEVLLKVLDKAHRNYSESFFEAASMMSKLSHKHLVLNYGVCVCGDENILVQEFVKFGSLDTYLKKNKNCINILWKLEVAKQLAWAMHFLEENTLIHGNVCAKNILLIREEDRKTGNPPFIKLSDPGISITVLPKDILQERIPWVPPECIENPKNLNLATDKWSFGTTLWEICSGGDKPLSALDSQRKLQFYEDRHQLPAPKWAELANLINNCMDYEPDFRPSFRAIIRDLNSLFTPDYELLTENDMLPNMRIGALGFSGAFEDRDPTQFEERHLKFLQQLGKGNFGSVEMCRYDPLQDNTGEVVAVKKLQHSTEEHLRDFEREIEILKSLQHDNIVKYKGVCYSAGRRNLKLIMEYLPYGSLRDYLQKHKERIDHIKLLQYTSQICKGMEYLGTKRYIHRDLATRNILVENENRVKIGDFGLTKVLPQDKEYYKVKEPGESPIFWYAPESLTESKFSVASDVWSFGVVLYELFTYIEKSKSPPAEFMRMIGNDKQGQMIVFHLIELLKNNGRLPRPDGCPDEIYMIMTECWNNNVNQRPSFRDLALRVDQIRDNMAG
Procedure, shortened: as §1

Tyk2 = Tyk2 (Homo sapiens (Human), UniProt P29597); test: Biochemical Tyk2 kinase assay (LanthaScreen)
Tyk2, sequence (P29597 whole entry): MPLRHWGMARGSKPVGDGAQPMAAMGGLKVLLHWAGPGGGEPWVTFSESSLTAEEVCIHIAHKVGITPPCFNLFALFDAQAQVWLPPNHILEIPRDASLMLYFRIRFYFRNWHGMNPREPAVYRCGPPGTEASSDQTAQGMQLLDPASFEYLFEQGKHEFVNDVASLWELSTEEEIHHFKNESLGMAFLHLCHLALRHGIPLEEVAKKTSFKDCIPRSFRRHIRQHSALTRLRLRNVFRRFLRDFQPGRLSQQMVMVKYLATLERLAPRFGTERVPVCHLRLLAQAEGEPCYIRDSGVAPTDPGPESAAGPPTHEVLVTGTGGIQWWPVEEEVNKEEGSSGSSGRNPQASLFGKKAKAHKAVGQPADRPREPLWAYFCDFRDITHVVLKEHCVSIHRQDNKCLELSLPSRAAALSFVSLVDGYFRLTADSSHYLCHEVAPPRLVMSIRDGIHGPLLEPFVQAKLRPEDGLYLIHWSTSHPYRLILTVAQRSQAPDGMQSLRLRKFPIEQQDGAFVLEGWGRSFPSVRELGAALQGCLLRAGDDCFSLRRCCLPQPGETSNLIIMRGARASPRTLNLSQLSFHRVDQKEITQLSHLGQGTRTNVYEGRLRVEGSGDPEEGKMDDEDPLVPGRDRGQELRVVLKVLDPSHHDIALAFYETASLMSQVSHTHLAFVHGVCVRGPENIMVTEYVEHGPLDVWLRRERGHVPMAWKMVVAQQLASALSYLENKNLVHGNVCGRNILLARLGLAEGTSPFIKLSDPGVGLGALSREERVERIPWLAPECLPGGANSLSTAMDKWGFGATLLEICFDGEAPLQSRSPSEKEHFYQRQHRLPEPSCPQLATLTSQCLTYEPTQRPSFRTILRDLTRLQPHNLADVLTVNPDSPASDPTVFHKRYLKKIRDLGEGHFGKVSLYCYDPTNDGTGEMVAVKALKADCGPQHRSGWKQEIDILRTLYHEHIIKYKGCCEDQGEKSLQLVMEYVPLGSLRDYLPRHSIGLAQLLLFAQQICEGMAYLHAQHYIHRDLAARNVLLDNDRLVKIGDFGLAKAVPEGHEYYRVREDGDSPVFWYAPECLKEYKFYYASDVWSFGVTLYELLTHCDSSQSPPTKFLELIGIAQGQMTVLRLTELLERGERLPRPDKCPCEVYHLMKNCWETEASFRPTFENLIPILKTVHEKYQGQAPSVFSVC
Procedure, shortened: as §1

Caco-2 cell monolayers = test: Caco-2 permeation assay; assay type: in vitro ADME; settings: 5 μM, A-B direction, with Verapamil (25 μM)
Procedure, shortened: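 Passive A-to-B permeability with P-gp inhibited by verapamil (25 μM); compound at 5 μM, n=2. Both compartments sampled at t0 and t120 and quantified by LC-MS/MS, giving apparent permeability in cm/sec from flux, area and concentration.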

JAK3 = JAK3 (Homo sapiens (Human), UniProt P52333); test: Biochemical JAK3 kinase assay (LanthaScreen); settings: for JAK3 (pKi)-JAK1 (pKi): selectivity JAK3 over JAK1, difference of pKi
JAK3, sequence (P52333 whole entry): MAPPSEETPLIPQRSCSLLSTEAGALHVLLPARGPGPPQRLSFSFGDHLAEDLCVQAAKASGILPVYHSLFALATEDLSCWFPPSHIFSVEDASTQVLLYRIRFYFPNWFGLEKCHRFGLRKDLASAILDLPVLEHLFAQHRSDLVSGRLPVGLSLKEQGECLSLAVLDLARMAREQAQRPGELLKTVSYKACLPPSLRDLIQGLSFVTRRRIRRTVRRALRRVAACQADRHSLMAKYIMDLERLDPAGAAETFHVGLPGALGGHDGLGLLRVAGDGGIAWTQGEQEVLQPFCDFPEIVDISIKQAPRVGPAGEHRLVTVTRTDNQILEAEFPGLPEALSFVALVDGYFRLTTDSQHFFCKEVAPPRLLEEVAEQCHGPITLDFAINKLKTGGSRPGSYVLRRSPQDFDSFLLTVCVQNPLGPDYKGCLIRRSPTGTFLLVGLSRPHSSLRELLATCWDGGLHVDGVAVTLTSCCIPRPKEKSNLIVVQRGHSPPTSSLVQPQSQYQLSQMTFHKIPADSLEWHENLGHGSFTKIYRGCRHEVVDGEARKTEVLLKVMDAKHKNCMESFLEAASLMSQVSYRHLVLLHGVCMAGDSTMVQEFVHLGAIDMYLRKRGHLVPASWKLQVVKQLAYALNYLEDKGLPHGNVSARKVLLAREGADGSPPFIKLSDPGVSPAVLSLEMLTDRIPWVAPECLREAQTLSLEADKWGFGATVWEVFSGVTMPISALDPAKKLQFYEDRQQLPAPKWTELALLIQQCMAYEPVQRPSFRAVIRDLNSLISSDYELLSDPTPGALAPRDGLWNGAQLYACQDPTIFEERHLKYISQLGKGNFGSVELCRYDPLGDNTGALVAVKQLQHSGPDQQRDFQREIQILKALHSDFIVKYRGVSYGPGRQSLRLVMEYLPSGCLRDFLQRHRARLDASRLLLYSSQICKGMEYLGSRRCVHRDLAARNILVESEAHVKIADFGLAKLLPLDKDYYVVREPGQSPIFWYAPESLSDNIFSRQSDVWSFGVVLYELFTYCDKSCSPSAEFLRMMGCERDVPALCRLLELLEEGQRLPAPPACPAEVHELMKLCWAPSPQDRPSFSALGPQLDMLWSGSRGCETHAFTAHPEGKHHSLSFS
Procedure, shortened: as §1

Row | Structure (SMILES) | Tall-1 (pIC50) [1] | Kp [2] | JAK 1 (pKi) (JAK1) | JAK 2 (pKi) (JAK2) | Tyk 2 (pKi) (Tyk2) | Caco Kp (Caco-2 cell monolayers) | JAK 3 (pKi) (JAK3) | JAK3 (pKi)-JAK1 (pKi) (JAK3)
1 | C=CC(=O)N1CC(CCn2c(=O)ccc3cnc(Nc4ccc(N5CCSCC5)cc4)nc32)C1 [Example 26] | B (B represents a pC50 value between 6.7 (included) and 7.5 (IC50 between 200 nM and 32 nM)) | > 1000 | E (E represents a pKi value of 7 or below (Ki of 100 nM or above)) | E (E represents a pKi value of 7 or below (Ki of 100 nM or above)) | E (E represents a pKi value of 7 or below (Ki of 100 nM or above)) | C (C represents a value between 10×10^−6 and 30×10^−6 cm/sec) | B (B represents pKi value between 9 and 10 (Ki between 1 nM and 0.1 nM)) | A (A represents a value of 3 or above)
2 | C=CC(=O)N1CC(CCn2c(=O)ccc3cnc(Nc4ccc(CCN(C)C)cc4)nc32)C1 [Example 89] | A (A represents a pIC50 value≥7.5 (IC50≤32 nM)) | > 100 | E (E represents a pKi value of 7 or below (Ki of 100 nM or above)) | E (E represents a pKi value of 7 or below (Ki of 100 nM or above)) | E (E represents a pKi value of 7 or below (Ki of 100 nM or above)) | A (A represents a value below 5×10^−6 cm/sec) | B (B represents pKi value between 9 and 10 (Ki between 1 nM and 0.1 nM)) | A (A represents a value of 3 or above)
3 | C=CC(=O)N1CCN(CCn2c(=O)ccc3cnc(Nc4ccc(N5CCN(C(=O)COC)CC5)cc4)nc32)[C@@H](C)C1 [Example 175] | B (B represents a pC50 value between 6.7 (included) and 7.5 (IC50 between 200 nM and 32 nM)) | > 100 | E (E represents a pKi value of 7 or below (Ki of 100 nM or above)) | E (E represents a pKi value of 7 or below (Ki of 100 nM or above)) | E (E represents a pKi value of 7 or below (Ki of 100 nM or above)) | A (A represents a value below 5×10^−6 cm/sec) | B (B represents pKi value between 9 and 10 (Ki between 1 nM and 0.1 nM)) | A (A represents a value of 3 or above)
4 | C=CC(=O)N1CC(CCn2c(=O)ccc3cnc(Nc4cnn(C)c4)nc32)C1 [Example 15] | B (B represents a pC50 value between 6.7 (included) and 7.5 (IC50 between 200 nM and 32 nM)) | > 100 | E (E represents a pKi value of 7 or below (Ki of 100 nM or above)) | E (E represents a pKi value of 7 or below (Ki of 100 nM or above)) | E (E represents a pKi value of 7 or below (Ki of 100 nM or above)) | B (B represents a value between 5×10^−6 and 10×10^−6 cm/sec) | B (B represents pKi value between 9 and 10 (Ki between 1 nM and 0.1 nM)) | A (A represents a value of 3 or above)
5 | C=CC(=O)N1CC(CCn2c(=O)ccc3cnc(Nc4cccc(N5CCN(C)CC5)c4)nc32)C1 [Example 31] | B (B represents a pC50 value between 6.7 (included) and 7.5 (IC50 between 200 nM and 32 nM)) | > 50 | E (E represents a pKi value of 7 or below (Ki of 100 nM or above)) | E (E represents a pKi value of 7 or below (Ki of 100 nM or above)) | E (E represents a pKi value of 7 or below (Ki of 100 nM or above)) | A (A represents a value below 5×10^−6 cm/sec) | B (B represents pKi value between 9 and 10 (Ki between 1 nM and 0.1 nM)) | A (A represents a value of 3 or above)
6 | C=CC(=O)N1CC(CCn2c(=O)ccc3cnc(Nc4ccc(N5CCN(C(=O)CCSC)CC5)cc4)nc32)C1 [Example 3, 8-(2-(1-acryloylazetidin-3-yl)ethyl)-2-((4-(4-(3-(methylthio)propanoyl)piperazin-1-yl)phenyl)amino)pyrido[2,3-d]pyrimidin-7(8H)-one] | B (B represents a pC50 value between 6.7 (included) and 7.5 (IC50 between 200 nM and 32 nM)) | > 1000 | E (E represents a pKi value of 7 or below (Ki of 100 nM or above)) | E (E represents a pKi value of 7 or below (Ki of 100 nM or above)) | E (E represents a pKi value of 7 or below (Ki of 100 nM or above)) | A (A represents a value below 5×10^−6 cm/sec) | A (A represents a pKi value≥10 (Ki≤0.1 nM)) | A (A represents a value of 3 or above)
7 | C=CC(=O)N1CCN(CCn2c(=O)ccc3cnc(Nc4ccc(N5CCN(C(=O)CCSC)CC5)cc4)nc32)[C@@H](C)C1 [Example 171] | A (A represents a pIC50 value≥7.5 (IC50≤32 nM)) | > 1000 | E (E represents a pKi value of 7 or below (Ki of 100 nM or above)) | E (E represents a pKi value of 7 or below (Ki of 100 nM or above)) | E (E represents a pKi value of 7 or below (Ki of 100 nM or above)) | B (B represents a value between 5×10^−6 and 10×10^−6 cm/sec) | A (A represents a pKi value≥10 (Ki≤0.1 nM)) | A (A represents a value of 3 or above)
8 | C=CC(=O)N1CCN(CCn2c(=O)ccc3cnc(Nc4ccc(N5CCN(C(=O)CSC)CC5)cc4)nc32)[C@@H](C)C1 [Example 173] | B (B represents a pC50 value between 6.7 (included) and 7.5 (IC50 between 200 nM and 32 nM)) | > 100 | E (E represents a pKi value of 7 or below (Ki of 100 nM or above)) | E (E represents a pKi value of 7 or below (Ki of 100 nM or above)) | E (E represents a pKi value of 7 or below (Ki of 100 nM or above)) | A (A represents a value below 5×10^−6 cm/sec) | B (B represents pKi value between 9 and 10 (Ki between 1 nM and 0.1 nM)) | A (A represents a value of 3 or above)
9 | C=CC(=O)N1CC(CCn2c(=O)ccc3cnc(Nc4ccc(N5CCN(S(=O)(=O)C6COC6)CC5)cc4)nc32)C1 [Example 102] | B (B represents a pC50 value between 6.7 (included) and 7.5 (IC50 between 200 nM and 32 nM)) | > 1000 | E (E represents a pKi value of 7 or below (Ki of 100 nM or above)) | E (E represents a pKi value of 7 or below (Ki of 100 nM or above)) | E (E represents a pKi value of 7 or below (Ki of 100 nM or above)) | A (A represents a value below 5×10^−6 cm/sec) | A (A represents a pKi value≥10 (Ki≤0.1 nM)) | A (A represents a value of 3 or above)
10 | C=CC(=O)N1CC(CCn2c(=O)ccc3cnc(Nc4ccc(CN5CCOCC5)cc4)nc32)C1 [Example 44] | B (B represents a pC50 value between 6.7 (included) and 7.5 (IC50 between 200 nM and 32 nM)) | > 50 | E (E represents a pKi value of 7 or below (Ki of 100 nM or above)) | E (E represents a pKi value of 7 or below (Ki of 100 nM or above)) | E (E represents a pKi value of 7 or below (Ki of 100 nM or above)) | – | B (B represents pKi value between 9 and 10 (Ki between 1 nM and 0.1 nM)) | A (A represents a value of 3 or above)

Reference: patent US11697648B2, “Fused pyrimidine pyridinone compounds as JAK inhibitors” (THERAVANCE BIOPHARMA R&D IP, LLC, priority 2019, dated 2023)
